Earlier results as cited in US11446359B2, “Systems and methods for cardiac plexus neuromodulation” (Tulavi Therapeutics, Inc., priority 2015, dated 2022).

Tests used:
[1] = 2.5 ml 0.25% with epinephrine
asthma [2] = test system: asthma
lumbar chain = conditions: remaining 4 required a second block
[3] = test system: thoracic sympathetic ganglia and rami
asthma [4] = test system: asthma; remark: listed apart in the source
[5] = in vivo
axons and Schwann cells = conditions: in vivo

C[C@H](CCCC(C)(C)O)[C@H]1CC[C@H]2[C@@H]3CC=C4C[C@@H](O)CC[C@]4(C)[C@H]3CC[C@]12C [25-OH-cholesterol]
relative potency among cholesterol oxides (sympathetic ganglia): most potent

CCCCN1CCCCC1C(=O)Nc1c(C)cccc1C (centres unmarked) [Marcaine]
duration of relief [1]: 1 to 10 days
duration of relief, median [1]: 4 days

CCO [absolute alcohol, ethanol]
patients with complete disappearance of asthma (asthma [2]; case studies, n=5, 2.5 cc absolute alcohol per injection): 100%
cases with complete relief (asthma [2]; further work, 13/18 cases): 72%
patients that required one injection only (lumbar chain): 19/23
patients with complete relief ([3]; 23 cases): 75%
cases with cure or dramatic improvement in asthma ([3]; severe intractable asthma cases (Levin 1935)): 75%
patients free of asthma (asthma [4]; case studies, n=3, 1 cc absolute alcohol): 100%
cases that obtained complete relief (asthma [4]; further cases): 80%

Oc1ccccc1 [phenol]
bilateral sensory blockade [5]: 1.3%
intrathecal injection observed [5]: 0.52%
transient hypertension [5]: 4.6%
time at which regeneration in the periphery may begin (axons and Schwann cells): 2 weeks
